# Measured values taken from patent publication US20120083522A1, “MODULATION OF INFLAMMATORY RESPONSES BY FACTOR XI” (Isis Pharmaceuitcals, inc., priority 2009, published 2012).
# What was measured:
# [1] = Tolerability in Sprague-Dawley rats: kidney function (Example 19); format: in vivo; conditions: Sprague Dawley rats
# Description: (§1) Urine samples were taken before the start of treatment.
# [2] = test system: human Factor XI mRNA; test: Dose-dependent inhibition in HepB3 cells, electroporation (Example 7); format: cell-based; conditions: approx. 16 h
# Description: The gapmers were also transfected via electroporation and their dose dependent inhibition of human Factor XI mRNA was measured. Cells were plated at a density of 20,000 cells per well and transfected via electroporation with 41.15 nM, 123.457 nM, 370.37 nM, 1111.11 nM, 3333.33 nM, and 10,000 nM concentrations of antisense oligonucleotide, as specified in Table 15. After a treatment period of approximately 16 hours, RNA was isolated from the cells and human Factor XI mRNA levels were measured by quantitative real-time PCR. Human Factor XI primer probe set RTS 2966 was used to measure mRNA levels. Factor XI mRNA levels were adjusted according to total RNA content, as measured by RIBOGREEN®. Results are presented as percent inhibition of human Factor XI, relative to untreated control cells.
# [3] = test system: human Factor XI mRNA; test: Dose-dependent inhibition in HepG2 cells, lipofectin (Example 5); format: cell-based; conditions: 16 hours
# Description: Cells were plated at a density of 10,000 cells per well and transfected using lipofectin reagent with 2.34 nM, 4.69 nM, 9.375 nM, 18.75 nM, 37.5 nM, and 75 nM concentrations of antisense oligonucleotide, as specified in Table 11. After a treatment period of approximately 16 hours, RNA was isolated from the cells and human Factor XI mRNA levels were measured by quantitative real-time PCR. Human Factor XI primer probe set RTS 2966 was used to measure mRNA levels. Factor XI mRNA levels were adjusted according to total RNA content, as measured by RIBOGREEN®. Results are presented as percent inhibition of human Factor XI, relative to untreated control cells.
# [4] = test system: human Factor XI mRNA; test: Antisense inhibition in HepG2 cells by microwalk gapmers, 75 nM, lipofectin (Example 3); format: cell-based; conditions: HepG2 cells, 75 nM, oligonucleotides targeted to nucleobases 1275 to 1318 of SEQ ID NO: 1
# In short: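 HepG2 cells (10,000 per well) were transfected with 75 nM gapmer using lipofectin and treated for about 24 h. Factor XI mRNA was quantified by real-time PCR, normalized to RiboGreen total RNA and expressed as percent inhibition versus untreated controls.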
# [5] = Tolerability in Sprague-Dawley rats: body and organ weight (Example 19); format: in vivo; conditions: 50 mg/kg s.c. twice per week for 6 weeks, change over weight at start of study
# Description: as §1
# The body weights are presented in Table 78 and are expressed as a percent change over the weights taken at the start of the study.
substance,measurement,setting,value
"417003 (antisense TGGTGCACAGTTTCTGGCAG; 2-13-5 gapmer, wing sugar chemistry not given here, further chemistry not given here) [compound 417003]","urine protein/creatinine ratio, After",[1]; after 50 mg/kg s.c. twice per week for 6 weeks,4.8
same,"urine protein/creatinine ratio, Before",[1]; before antisense oligonucleotide treatment,0.9
same,percent inhibition of human Factor XI mRNA,[2]; 41.15 nM,31%
same,percent inhibition of human Factor XI mRNA,[2]; 123.457 nM,0%
same,percent inhibition of human Factor XI mRNA,[2]; 370.37 nM,15%
same,percent inhibition of human Factor XI mRNA,[2]; 1111.11 nM,43%
same,percent inhibition of human Factor XI mRNA,[2]; 3333.33 nM,84%
same,percent inhibition of human Factor XI mRNA,[2]; 10000 nM,92%
same,"percent inhibition of human Factor XI mRNA, relative to untreated control cells",[3]; 2.34 nM,6%
same,"percent inhibition of human Factor XI mRNA, relative to untreated control cells",[3]; 4.69 nM,29%
same,"percent inhibition of human Factor XI mRNA, relative to untreated control cells",[3]; 9.375 nM,48%
same,"percent inhibition of human Factor XI mRNA, relative to untreated control cells",[3]; 18.75 nM,64%
same,"percent inhibition of human Factor XI mRNA, relative to untreated control cells",[3]; 37.5 nM,73%
same,"percent inhibition of human Factor XI mRNA, relative to untreated control cells",[3]; 75 nM,82%
same,% inhibition of human Factor XI mRNA levels,[4],89%
same,Percent change in Body weight,[5],−40%
